Earlier results, collected in patent publication US20240108699A1 (priority 2022, published 2024).

Conditions: in vivo

## Botulinum toxin complex A [BoNT-A]
  time for which effects are maintained: three to six
